Experimental findings from patent US10730889B2, “Amido spirocyclic amide and sulfonamide derivatives” (Forma TM, LLC, priority 2012, dated 2020) are described below.

In the assay the test system is A2780 cells. The assay can be described thus: In-vitro cell proliferation assay (SRB, 72 hours). The assay is classed as cell-based. The settings on record: Homo sapiens, A2780, 72 h, read-out: Cell Proliferation (IC50).

Where two headings read alike, the source gives them in different places.

Regarding `Cn1cc(C(=O)N2CCC3(CC2)CC3CNC(=O)N2Cc3ccncc3C2)cn1` (stereo not drawn) [Example 221, N-[[6-(1-methylpyrazole-4-carbonyl)-6-azaspiro[2.5]octan-2-yl]methyl]-1,3-dihydropyrrolo[3,4-c]pyridine-2-carboxamide], the IC50 (A2780 cells, 72 hours, SRB) came out at 0.0254 µM.
Take `CCn1nc(C)c(C(=O)N2CCC3(CC2)CC3CNC(=O)c2cc3c(o2)C=NCC3)c1C` (stereo not drawn) [Example 222, N-[[6-(1-isopropyl-3,5-dimethyl-pyrazole-4-carbonyl)-6-azaspiro[2.5]octan-2-y]methyl]furo[2,3-c]pyridine-2-carboxamide]: where the note is “A2780 cells, 72 hours, SRB”, the IC50 is 0.0117 µM.
Consider `Cc1nn(-c2ccc(F)cc2)c(C)c1C(=O)N1CCC2(CC1)CC2CNC(=O)c1cc2ccncc2o1` (stereo not drawn) [Example 223, N-[[6-[1-(4-fluorophenyl)-3,5-dimethyl-pyrazole-4-carbonyl]-6-azaspiro[2.5]octan-2-yl]methyl]furo[2,3-c]pyridine-2-carboxamide], for which the IC50 (A2780 cells, 72 hours, SRB) is 0.00192 µM.
For the compound `CC1(OC(=O)N2CCC3(CC2)CC3CNC(=O)N2Cc3ccncc3C2)CCC1` (stereo not drawn) [Example 228, (1-methylcyclobutyl) 2-[(1,3-dihydropyrrolo[3,4-c]pyridine-2-carbonylamino)methyl]-6-azaspiro[2.5]octane-6-carboxylate], the IC50 is 0.00474 µM.
As to `O=C(CCN1CCOCC1)N1CCC2(CC1)CC2CNC(=O)N1Cc2ccncc2C1` (stereo not drawn) [Example 229, N-[[6-(3-morpholinopropanoyl)-6-azaspiro[2.5]octan-2-yl)methyl]-1,3-dihydropyrrolo[3,4-c]pyridine-2-carboxamide], the IC50 (A2780 cells, 72 hours, SRB) turned out to be 0.0184 µM.
Still for that read-out and setting: under `O=C(NCC1CC12CCN(C(=O)C(F)(F)c1ccccc1)CC2)N1Cc2ccncc2C1` (stereo not drawn) [Example 230, N-[[6-(2,2-difluoro-2-phenyl-acetyl)-6-azaspiro[2.5]octan-2-yl]methyl]-1,3-dihydropyrrolo[3,4-c]pyridine-2-carboxamide] stands 0.0299 µM; under `Cc1cccnc1C(=O)N1CCC2(CC1)CC2CNC(=O)c1cc2ccncc2o1` (stereo not drawn) [Example 231, N-[[6-(3-methylpyridine-2-carbonyl)-6-azaspiro[2.5]octan-2-yl]methyl]furo[2,3-c]pyridine-2-carboxamide], 0.516 µM.
As for `Cc1cnccc1C(=O)N1CCC2(CC1)CC2CNC(=O)c1cc2ccncc2o1` (stereo not drawn) [Example 232, N-[[6-(3-methylpyridine-4-carbonyl)-6-azaspiro[2.5]octan-2-yl]methyl]furo[2,3-c]pyridine-2-carboxamide], the IC50 (A2780 cells, 72 hours, SRB) was determined as 0.207 µM.
Turning to `Cc1ccc(C(=O)N2CCC3(CC2)CC3CNC(=O)c2cc3ccncc3o2)cn1` (stereo not drawn) [Example 233, N-[[6-(6-methylpyridine-3-carbonyl)-6-azaspiro[2.5]octan-2-yl]methyl]furo[2,3-c]pyridine-2-carboxamide], where the note is “A2780 cells, 72 hours, SRB”, the IC50 is 0.288 µM.
As for `Cc1ccnc(C(=O)N2CCC3(CC2)CC3CNC(=O)c2cc3ccncc3o2)c1` (stereo not drawn) [Example 235, N-[[6-(4-methylpyridine-2-carbonyl)-6-azaspiro[2.5]octan-2-yl]methyl]furo[2,3-c]pyridine-2-carboxamide], under “A2780 cells, 72 hours, SRB”, the IC50 stood at 1.56 µM.
On to `O=C(NCC1CC12CCN(C(=O)c1cccc3[nH]cnc13)CC2)c1cc2ccncc2o1` (stereo not drawn) [Example 236, N-[[6-(1H-benzimidazole-4-carbonyl)-6-azaspiro[2.5]octan-2-yl]methyl]furo[2,3-c]pyridine-2-carboxamide], for which the IC50 (A2780 cells, 72 hours, SRB) was determined as 0.0473 µM.
Turning to `O=C(NCC1CC12CCN(C(=O)c1cc3cccn3cn1)CC2)c1cc2ccncc2o1` (stereo not drawn) [Example 237, N-[[6-(pyrrolo[1,2-c]pyrimidine-3-carbonyl)-6-azaspiro[2.5]octan-2-yl]methyl]furo[2,3-c]pyridine-2-carboxamide], the IC50 (A2780 cells, 72 hours, SRB) is 0.166 µM.
With `O=C(NCC1CC12CCN(C(=O)c1ccc3[nH]nnc3c1)CC2)c1cc2ccncc2o1` (stereo not drawn) [Example 238, N-[[6-(1H-benzotriazole-5-carbonyl)-6-azaspiro[2.5]octan-2-yl]methyl]furo[2,3-c]pyridine-2-carboxamide], for the setting “A2780 cells, 72 hours, SRB”, the IC50 turned out to be 0.91 µM.
Same read-out and setting: under `O=C(NCC1CC12CCN(C(=O)c1ccnc3[nH]ccc13)CC2)c1cc2ccncc2o1` (stereo not drawn) [Example 239, N-[[6-(1H-pyrrolo[2,3-b]pyridine-4-carbonyl)-6-azaspiro[2.5]octan-2-yl]methyl]furo[2,3-c]pyridine-2-carboxamide] stands 0.0297 µM; under `O=C(NCC1CC12CCN(C(=O)c1cccc3[nH]ncc13)CC2)c1cc2ccncc2o1` (stereo not drawn) [Example 240, N-[[6-(1H-indazole-4-carbonyl)-6-azaspiro[2.5]octan-2-yl]methyl]furo[2,3-c]pyridine-2-carboxamide], 0.0187 µM; under `O=C(NCC1CC12CCN(C(=O)c1ccc3[nH]cnc3c1)CC2)c1cc2ccncc2o1` (stereo not drawn) [Example 241, N-[[6-(1H-benzimidazole-5-carbonyl)-6-azaspiro[2.5]octan-2-yl]methyl]furo[2,3-c]pyridine-2-carboxamide], 0.0702 µM.
Regarding `N#Cc1ccc(C(=O)N2CCC3(CC2)CC3CNC(=O)c2cc3ccncc3o2)cc1` (stereo not drawn) [Example 242, N-[[6-(4-cyanobenzoyl)-6-azaspiro[2.5]octan-2-yl]methyl]furo[2,3-c]pyridine-2-carboxamide], the IC50 (A2780 cells, 72 hours, SRB) was determined as 0.713 µM.
On to `N#Cc1cccc(C(=O)N2CCC3(CC2)CC3CNC(=O)c2cc3ccncc3o2)c1` (stereo not drawn) [Example 243, N-[[6-(3-cyanobenzoyl)-6-azaspiro[2.5]octan-2-yl]methyl]furo[2,3-c]pyridine-2-carboxamide], for which the IC50 (A2780 cells, 72 hours, SRB) was found to be 0.434 µM.
Consider `O=C(NCC1CC12CCN(C(=O)c1ccc(CN3CCOCC3)cc1)CC2)c1cc2ccncc2o1` (stereo not drawn) [Example 245, N-[[6-[4-(morpholinomcthyl)benzoyl]-6-azaspiro[2.5]octan-2-yl]methyl]furo[2,3-c]pyridine-2-carboxamide], for which, for the setting “A2780 cells, 72 hours, SRB”, the IC50 stood at 0.0126 µM.
The same measure, in the same setting: as for `Cc1nccn1Cc1ccc(C(=O)N2CCC3(CC2)CC3CNC(=O)c2cc3ccncc3o2)cc1` (stereo not drawn) [Example 246, N-[[6-[4-[(2-methylimidazol-1-yl)methyl]benzoyl]-6-azaspiro[2.5]octan-2-yl]methyl]furo[2,3-c]pyridine-2-carboxamide], the figure is 0.0138 µM; as for `O=C(NCC1CC12CCN(C(=O)c1ccc(OC(F)(F)F)cc1)CC2)c1cc2ccncc2o1` (stereo not drawn) [Example 247, N-[[6-[4-(trifluoromethoxy)benzoyl]-6-azaspiro[2.5]octan-2-yl]methyl]furo[2,3-c]pyridine-2-carboxamide], 2 µM; as for `O=C(NCC1CC12CCN(C(=O)c1ccc(CN3CCCC3)cc1)CC2)c1cc2ccncc2o1` (stereo not drawn) [Example 248, N-[[6-[4-(pyrrolidin-1-ylmethyl)benzoyl]-6-azaspiro[2.5]octan-2-yl]methyl]furo[2,3-c]pyridine-2-carboxamide], 0.00439 µM.
As to `O=C(NCC1CC12CCN(C(=O)c1cccc(Cn3cncn3)c1)CC2)c1cc2ccncc2o1` (stereo not drawn) [Example 249, N-[[6-[3-(1,2,4-triazol-1-ylmethyl)benzoyl]-6-azaspiro[2.5]octan-2-yl]methyl]furo[2,3-c]pyridine-2-carboxamide], for the setting “A2780 cells, 72 hours, SRB”, the IC50 was determined as 0.935 µM.
Consider `O=C(NCC1CC12CCN(C(=O)c1ccccc1Cn1cncn1)CC2)c1cc2ccncc2o1` (stereo not drawn) [Example 250, N-[[6-[2-(1,2,4-triazol-1-ylmethyl)benzoyl]-6-azaspiro[2.5]octan-2-yl]methyl]furo[2,3-c]pyridine-2-carboxamide], for which the IC50 (A2780 cells, 72 hours, SRB) worked out at 2 µM.
On to `O=C(NCC1CC12CCN(C(=O)c1ccc(Cn3cncn3)cc1)CC2)c1cc2ccncc2o1` (stereo not drawn) [Example 251, N-[[6-[4-(1,2,4-triazol-1-ylmethyl)benzoyl]-6-azaspiro[2.5]octan-2-yl]methyl]furo[2,3-c]pyridine-2-carboxamide], for which the IC50 (A2780 cells, 72 hours, SRB) came to 0.215 µM.
As to `O=C(NCC1CC12CCN(C(=O)c1cccc(Cn3ccnc3)c1)CC2)c1cc2ccncc2o1` (stereo not drawn) [Example 252, N-[[6-[3-(imidazol-1-ylmethyl)benzoyl]-6-azaspiro[2.5]octan-2-yl]methyl]furo[2,3-c]pyridine-2-carboxamide], the IC50 (A2780 cells, 72 hours, SRB) turned out to be 0.344 µM.
Still for that read-out and setting: under `O=C(NCC1CC12CCN(C(=O)c1ccc(-n3ccnc3)cc1)CC2)c1cc2ccncc2o1` (stereo not drawn) [Example 253, N-[[6-(4-imidazol-1-ylbenzoy)-6-azaspiro[2.5]octan-2-yl]methyl]furo[2,3-c]pyridine-2-carboxamide] stands 0.0554 µM.
For the compound `O=C(NCC1CC12CCN(C(=O)c1ccc(-c3ncn[nH]3)cc1)CC2)c1cc2ccncc2o1` (stereo not drawn) [Example 254, N-[[6-(4-(1H-1,2,4-triazol-5-yl)benzoyl]-6-azaspiro[2.5]octan-2-yl]methyl]furo[2,3-c]pyridine-2-carboxamide], under “A2780 cells, 72 hours, SRB”, the IC50 is 0.013 µM.
`O=C(NCC1CC12CCN(C(=O)c1ccc(-n3ccnc3)nc1)CC2)c1cc2ccncc2o1` (stereo not drawn) [Example 255, N-[[6-(6-imidazol-1-ylpyridine-3-carbonyl)-6-azaspiro[2.5]octan-2-yl]methyl]furo[2,3-c]pyndine-2-carboxamide]: the IC50 (A2780 cells, 72 hours, SRB) was 0.179 µM.
As to `O=C(NCC1CC12CCN(C(=O)c1cc(C(F)(F)F)ccn1)CC2)c1cc2ccncc2o1` (stereo not drawn) [Example 256, N-[[6-[4-(trifluoromethyl]pyridine-2-carbonyl]6-azaspiro[2.5]octan-2-yl]methyl]furo[2,3-c]pyridine-2-carboxamide], under “A2780 cells, 72 hours, SRB”, the IC50 was 0.596 µM.
Regarding `O=C(NCC1CC12CCN(C(=O)c1ccc(C(F)(F)F)nc1)CC2)c1cc2ccncc2o1` (stereo not drawn) [Example 257, N-[[6-[6-(trifluoromethyl]pyndine-3-carbonyl]-6-azaspiro[2.5]octan-2-yl]methyl]furo[2,3-c]pyridine-2-carboxamide], the IC50 (A2780 cells, 72 hours, SRB) worked out at 2 µM.
As for `O=C1COc2ccc(C(=O)N3CCC4(CC3)CC4CNC(=O)c3cc4ccncc4o3)cc2N1` (stereo not drawn) [Example 258, N-[[6-(3-oxo-4H-1,4-benzoxazine-6-carbonyl)-6-azaspiro[2.5]octan-2-yl]methyl]furo[2,3-c]pyridine-2-carboxamide], the IC50 (A2780 cells, 72 hours, SRB) was 0.0203 µM.
Consider `NS(=O)(=O)c1ccc(C(=O)N2CCC3(CC2)CC3CNC(=O)c2cc3ccncc3o2)cc1` (stereo not drawn) [Example 259, N-[[6-(4-sulfamoylbenzoyl)-6-azaspiro[2.5]octan-2-yl]methyl]furo[2,3-c]pyridine-2-carboxamide], for which, where the note is “A2780 cells, 72 hours, SRB”, the IC50 came out at 1.2 µM.
